Measurements published in PubChem BioAssay (NCI).
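Briefly, cells in 96-well plates were exposed to five compound concentrations for 48 h, and endpoints were estimated by linear interpolation. At the TGI there is no net growth.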

What was measured:
Experiment in all cases: growth of human tumour cells (NCI), 48 h
ACHN renal = test system: ACHN renal
HCC-2998 colon = test system: HCC-2998 colon
HS 578T breast = test system: HS 578T breast
HT29 colon = test system: HT29 colon
MCF7 breast = test system: MCF7 breast
OVCAR-4 ovarian = test system: OVCAR-4 ovarian
SF-268 CNS = test system: SF-268 CNS
SF-539 CNS = test system: SF-539 CNS
SNB-19 CNS = test system: SNB-19 CNS
SW-620 colon = test system: SW-620 colon
U251 CNS = test system: U251 CNS
LOX IMVI melanoma = test system: LOX IMVI melanoma
MDA-N = test system: MDA-N
PC-3 prostate = test system: PC-3 prostate
SF-295 CNS = test system: SF-295 CNS
UACC-257 melanoma = test system: UACC-257 melanoma

Compound	TGI (ACHN renal) [µM]	TGI (HCC-2998 colon) [µM]	TGI (HS 578T breast) [µM]	TGI (HT29 colon) [µM]	TGI (MCF7 breast) [µM]	TGI (OVCAR-4 ovarian) [µM]	TGI (SF-268 CNS) [µM]	TGI (SF-539 CNS) [µM]	TGI (SNB-19 CNS) [µM]	TGI (SW-620 colon) [µM]	TGI (U251 CNS) [µM]	TGI (LOX IMVI melanoma) [µM]	TGI (MDA-N) [µM]	TGI (PC-3 prostate) [µM]	TGI (SF-295 CNS) [µM]	TGI (UACC-257 melanoma) [µM]
COc1ccc(C(=O)/C=C/c2ccc(OCC#N)cc2)cc1OC	76.1	33.3	> 100	74.7	16	> 100	85.3	36.9	29.9	23.4	29.6	–	–	–	–	–
O=C(OCC(Cl)(Cl)Cl)N1CC[C@@H](C2CCCCC2)C1	49.7	36.7	–	–	45.5	42.2	34.3	–	38.6	–	18.9	> 100	> 100	46.3	38.9	> 100
Clc1cc2nnn(C3CCCCO3)c2cc1Cl (centres undefined)	> 100	> 100	> 100	> 100	> 100	> 100	> 100	> 100	> 100	–	> 100	–	> 100	> 100	> 100	> 100
CCCC1=NC(C(F)(F)F)(C(F)(F)F)N=C(N2CCOCC2)O1	–	> 100	> 100	> 100	> 100	> 100	> 100	> 100	> 100	> 100	> 100	> 100	–	> 100	> 100	> 100
COC(=O)c1ccc(-n2c(C)nc(=O)c(-c3ccccc3)c2C)cc1	> 100	> 100	> 100	> 100	> 100	> 100	> 100	> 100	> 100	> 100	> 100	> 100	–	> 100	> 100	> 100
c1ccc(N=C2C(=Nc3ccccc3)N(C3CCCCC3)C(=NC3CCCCC3)N2c2ccccc2)cc1	> 100	> 100	> 100	> 100	> 100	–	–	–	> 100	> 100	> 100	–	> 100	> 100	–	> 100
Cc1ccc(S(=O)(=O)N/N=C2/C3C(CC2(C)C)C2(C)CCCC3(C)C2O)cc1 (centres undefined)	–	–	55.6	39.6	43.2	43.3	> 100	–	96.5	–	32.1	27.4	37.9	29.7	29.6	33.3
CSC1=N/C(=C\c2ccccc2)C(=O)N1CN1CCOCC1	> 100	–	> 100	78.5	> 100	90.8	> 100	–	> 100	> 100	> 100	> 100	> 100	> 100	> 100	–
N#Cc1c(N)nc2c(N=Nc3ccccc3)c(N)nn2c1Nc1ccccc1	61.9	–	–	31.4	–	46.4	56.9	47.2	39.9	50.3	24.6	10.5	38.5	–	59.9	38.9
